From ChEMBL document CHEMBL1156409, “Durhamycin A, a potent inhibitor of HIV Tat transactivation” (J Nat Prod, 2002)

Tests used:
[1] = Inhibition of HIV Tat transactivation in human 63A9 cells by luciferase based reporter gene assay; format: cell-based, Human immunodeficiency virus
[2] = Cytotoxicity against human 63A9 cells at 25 uM by MTS assay; format: cell-based; details: 63a9, 25 µM
[3] = tested on: Human immunodeficiency virus; experiment: Antiviral activity against HIV H9/3B in HeLa P4/P5 cells after 48 hrs by vertical assay; format: functional, organism-based; details: Human immunodeficiency virus 1, H9/3B
[4] = Cytotoxicity against human HeLa P4/P5 cells up to 5 uM; format: cell-based
[5] = Human immunodeficiency virus 1, 63A9, read-out: IC50

| SMILES | IC50 [1, 5] | IC50 ([1]; 63a9) | Activity [2] | IC50 [3] | Activity [4] |
| --- | --- | --- | --- | --- | --- |
| CCC(C)c1c(O[C@H]2C[C@@H](O[C@H]3C[C@@H](O)[C@H](O)[C@@H](C)O3)[C@H](O)[C@@H](C)O2)cc2cc3c(c(O)c2c1O)C(=O)C(O[C@H]1C[C@@H](O[C@H]2C[C@@H](O[C@H]4C[C@@H](O)[C@H](O)[C@@H](C)O4)[C@@H](OC(C)=O)[C@@H](C)O2)[C@H](O)[C@@H](C)O1)C(C(OC)C(=O)C(O)C(C)O)C3 (stereo partly specified) [DURHAMYCIN B] | 48 nM | – | – | – | – |
| CCC(C)c1c(O)cc2cc3c(c(O)c2c1O)C(=O)C(O)C(C(OC)C(=O)C(O)C(C)O)C3 (stereo unspecified) | – | Not Active | – | – | – |
| CCC(C)c1c(O[C@H]2C[C@@H](O[C@H]3C[C@@H](O)[C@H](O)[C@@H](C)O3)[C@H](O)[C@@H](C)O2)cc2cc3c(c(O)c2c1O)C(=O)C(O[C@H]1C[C@@H](O[C@H]2C[C@@H](O[C@H]4C[C@@H](O[C@H]5C[C@@H](O)[C@H](O)[C@@H](C)O5)[C@H](O)[C@@H](C)O4)[C@@H](OC(C)=O)[C@@H](C)O2)[C@H](O)[C@@H](C)O1)C(C(OC)C(=O)C(O)C(C)O)C3 (stereo partly specified) [DURHAMYCIN A] | 4.8 nM | – | Non-toxic | 11.6 nM | Non-toxic |
